Measured values taken from US12378231B2, “Small molecules as monoacylglycerol lipase (MAGL) inhibitors, compositions and use thereof” (APOGEE PHARMACEUTICALS, INC., priority 2023, dated 2025).
Read-outs that look alike come from different tables or passages of the source.

Tests used:
human recombinant MAGL = human recombinant MAGL (Homo sapiens (Human), UniProt Q99685); experiment: In vitro inhibition of human recombinant MAGL activity (Cayman inhibitor screening kit, 4-nitrophenylacetate hydrolysis); type: biochemical
Source text: The inhibitory effect of the synthetic chemicals on activity of human recombinant MAGL was studied using commercial inhibitor screening kit (Cayman Chemical). […] The absorbance of the yellow product can be analyzed using the plate reader. […]

human recombinant FAAH = human recombinant FAAH (Homo sapiens (Human), UniProt O00519); experiment: In vitro inhibition of human recombinant FAAH activity (Cayman FAAH inhibitor screening kit, AMC arachidonoyl amide hydrolysis); type: biochemical
Source text: In brief, FAAH hydrolyzes AMC arachidonoyl amide resulting in the release of the fluorescent product, while the inhibitor will inhibit the FAAH activity and thus reduce the fluorescent signal.

[1] = human recombinant MAGL, read-out: Inhibition on MAGL activity (IC50)

Chain of human recombinant MAGL (Q99685 whole entry): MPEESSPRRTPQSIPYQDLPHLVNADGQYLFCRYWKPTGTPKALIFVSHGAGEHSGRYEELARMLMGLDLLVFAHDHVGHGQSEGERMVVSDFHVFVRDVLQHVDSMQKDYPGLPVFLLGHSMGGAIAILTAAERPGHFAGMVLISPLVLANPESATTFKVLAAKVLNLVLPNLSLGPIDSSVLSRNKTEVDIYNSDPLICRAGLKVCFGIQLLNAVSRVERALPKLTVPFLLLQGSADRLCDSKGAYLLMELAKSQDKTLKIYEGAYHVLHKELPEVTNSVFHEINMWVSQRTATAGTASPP
Chain of human recombinant FAAH (O00519 whole entry): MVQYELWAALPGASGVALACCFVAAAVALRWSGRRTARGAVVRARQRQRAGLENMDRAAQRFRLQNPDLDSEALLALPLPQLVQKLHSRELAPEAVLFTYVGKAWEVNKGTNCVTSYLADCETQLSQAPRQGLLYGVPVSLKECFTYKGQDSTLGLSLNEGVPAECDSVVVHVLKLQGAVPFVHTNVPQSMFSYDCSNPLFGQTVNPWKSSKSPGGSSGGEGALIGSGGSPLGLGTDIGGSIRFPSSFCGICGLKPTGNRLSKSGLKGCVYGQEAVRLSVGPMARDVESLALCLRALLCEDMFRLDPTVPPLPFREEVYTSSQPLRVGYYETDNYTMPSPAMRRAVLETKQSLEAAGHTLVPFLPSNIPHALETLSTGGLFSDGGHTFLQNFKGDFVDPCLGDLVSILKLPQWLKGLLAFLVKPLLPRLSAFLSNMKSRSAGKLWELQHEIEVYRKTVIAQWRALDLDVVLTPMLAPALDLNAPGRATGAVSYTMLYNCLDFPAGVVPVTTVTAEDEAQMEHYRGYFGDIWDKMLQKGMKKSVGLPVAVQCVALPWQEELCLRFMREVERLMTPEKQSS

O=C(On1nnc2ccccc21)N1CCN(C(c2ccc3c(c2)COCO3)c2ccc3c(c2)COCO3)CC1 [Example 27, 1H-benzo[d][1,2,3]triazol-1-yl 4-(bis(4H-benzo[d][1,3]dioxin-6-yl)methyl)piperazine-1-carboxylate]
IC50 (human recombinant MAGL): 0.01 to 0.1 µM
IC50 (human recombinant FAAH): > 10 µM

Cc1ncn(C(=O)N2CCN(C(c3ccc4c(c3)COCO4)c3ccc4c(c3)COCO4)CC2)n1 [Example 28, (4-(bis(4H-benzo[d][1,3]dioxin-6-yl)methyl)piperazin-1-yl)(3-methyl-1H-1,2,4-triazol-1-yl)methanone]
IC50 (human recombinant MAGL; [1]): 0.001 to 0.02 µM
IC50 (human recombinant FAAH): > 20 µM

O=C(Oc1c(F)c(F)c(F)c(F)c1F)N1CCN(C(c2ccc3c(c2)COCO3)c2ccc3c(c2)COCO3)CC1 [Example 29, pentafluorophenyl 4-(bis(4H-benzo[d][1,3]dioxin-6-yl)methyl)piperazine-1-carboxylate]
IC50 (human recombinant MAGL; [1]): > 0.1 µM
IC50 (human recombinant FAAH): > 50 µM

CC(C)=NOC(=O)N1CCN(C(c2ccc3c(c2)COCO3)c2ccc3c(c2)COCO3)CC1 [Example 30, propan-2-one O-(4-(bis(4H-benzo[d][1,3]dioxin-6-yl)methyl)piperazine-1-carbonyl) oxime]
IC50 (human recombinant MAGL; [1]): > 10 µM
IC50 (human recombinant FAAH): > 50 µM

O=C(N1CCN(C(c2ccc3c(c2)COCO3)c2ccc3c(c2)COCO3)CC1)n1ncc2ccccc21 [Example 35, (4-(bis(4H-benzo[d][1,3]dioxin-6-yl)methyl)piperazin-1-yl)(1H-indazol-1-yl)methanone]
IC50 (human recombinant MAGL; [1]): > 0.1 µM
IC50 (human recombinant FAAH): > 50 µM

N#Cc1ncn(C(=O)N2CCN(C(c3ccc4c(c3)COCO4)c3ccc4c(c3)COCO4)CC2)n1 [Example 36, 1-(4-(bis(4H-benzo[d][1,3]dioxin-6-yl)methyl)piperazine-1-carbonyl)-1H-1,2,4-triazole-3-carbonitrile]
IC50 (human recombinant MAGL; [1]): 0.01 to 0.1 µM
IC50 (human recombinant FAAH): > 10 µM

O=C(N1CCN(C(c2ccc3c(c2)COCO3)c2ccc3c(c2)COCO3)CC1)n1nnc2ccc(Br)cc21 [Example 37, (4-(bis(4H-benzo[d][1,3]dioxin-6-yl)methyl)piperazin-1-yl)(6-bromo-1H-benzo[d][1,2,3]triazol-1-yl)methanone]
IC50 (human recombinant MAGL; [1]): 0.001 to 0.01 µM
IC50 (human recombinant FAAH): > 50 µM

O=C(N1CCN(C(c2ccc3c(c2)COCO3)c2ccc3c(c2)COCO3)CC1)n1nnc2cc(Br)ccc21 [Example 38, (4-(bis(4H-benzo[d][1,3]dioxin-6-yl)methyl)piperazin-1-yl)(5-bromo-1H-benzo[d][1,2,3]triazol-1-yl)methanone]
IC50 (human recombinant MAGL; [1]): 0.01 to 0.1 µM
IC50 (human recombinant FAAH): > 50 µM

O=C(N1CCN(C(c2ccc3c(c2)COCO3)c2ccc3c(c2)COCO3)CC1)n1nnc2ccc(F)cc21 [Example 39, (4-(bis(4H-benzo[d][1,3]dioxin-6-yl)methyl)piperazin-1-yl)(6-fluoro-1H-benzo[d][1,2,3]triazol-1-yl)methanone]
IC50 (human recombinant MAGL; [1]): 0.001 to 0.01 µM
IC50 (human recombinant FAAH): ~50 µM

O=C(N1CCN(C(c2ccc3c(c2)COCO3)c2ccc3c(c2)COCO3)CC1)n1nnc2cc(F)ccc21 [Example 40, (4-(bis(4H-benzo[d][1,3]dioxin-6-yl)methyl)piperazin-1-yl)(5-fluoro-1H-benzo[d][1,2,3]triazol-1-yl)methanone]
IC50 (human recombinant MAGL; [1]): 0.01 to 0.1 µM
IC50 (human recombinant FAAH): 1 to 20 µM

O=C(N1CCN(C(c2ccc3c(c2)COCO3)c2ccc3c(c2)COCO3)CC1)n1nnc2c(Cl)cc(C(F)(F)F)cc21 [Example 42, (4-(bis(4H-benzo[d][1,3]dioxin-6-yl)methyl)piperazin-1-yl)(4-chloro-6-(trifluoromethyl)-1H-benzo[d][1,2,3]triazol-1-yl)methanone]
IC50 (human recombinant MAGL; [1]): 0.001 to 0.01 µM
IC50 (human recombinant FAAH): > 20 µM

O=C(Nc1cccnc1)N1CCN(C(c2ccc3c(c2)COCO3)c2ccc3c(c2)COCO3)CC1 [Example 43, 4-(bis(4H-benzo[d][1,3]dioxin-6-yl)methyl)-N-(pyridin-3-yl)piperazine-1-carboxamide]
IC50 (human recombinant MAGL; [1]): > 0.1 µM
IC50 (human recombinant FAAH): > 50 µM

O=C(N1CCN(C(c2ccc3c(c2)COCO3)c2ccc3c(c2)COCO3)CC1)n1nnc2ccc(C(F)(F)F)cc21 [Example 44, (4-(bis(4H-benzo[d][1,3]dioxin-6-yl)methyl)piperazin-1-yl)(6-(trifluoromethyl)-1H-benzo[d][1,2,3]triazol-1-yl)methanone]
IC50 (human recombinant MAGL; [1]): 0.001 to 0.01 µM
IC50 (human recombinant FAAH): > 10 µM

O=C(N1CCN(C(c2ccc3c(c2)COCO3)c2ccc3c(c2)COCO3)CC1)n1nnc2cc(C(F)(F)F)ccc21 [Example 45, (4-(bis(4H-benzo[d][1,3]dioxin-6-yl)methyl)piperazin-1-yl)(5-(trifluoromethyl)-1H-benzo[d][1,2,3]triazol-1-yl)methanone]
IC50 (human recombinant MAGL; [1]): 0.01 to 0.1 µM
IC50 (human recombinant FAAH): > 1 µM

O=C(N1CCN(C(c2ccc3c(c2)COCO3)c2ccc3c(c2)COCO3)CC1)n1nnc2cc3c(cc21)OCCO3 [Example 46, (4-(bis(4H-benzo[d][1,3]dioxin-6-yl)methyl)piperazin-1-yl)(6,7-dihydro-1H-[1,4]dioxino[2′,3′:4,5]benzo[1,2-d][1,2,3]triazol-1-yl)methanone]
IC50 (human recombinant MAGL; [1]): 0.01 to 0.1 µM
IC50 (human recombinant FAAH): > 10 µM

N#Cc1ccc2nnn(C(=O)N3CCN(C(c4ccc5c(c4)COCO5)c4ccc5c(c4)COCO5)CC3)c2c1 [Example 48, 1-(4-(bis(4H-benzo[d][1,3]dioxin-6-yl)methyl)piperazine-1-carbonyl)-1H-benzo[d][1,2,3]triazole-6-carbonitrile]
IC50 (human recombinant MAGL; [1]): 0.001 to 0.01 µM
IC50 (human recombinant FAAH): > 20 µM

N#Cc1ccc2c(c1)nnn2C(=O)N1CCN(C(c2ccc3c(c2)COCO3)c2ccc3c(c2)COCO3)CC1 [Example 49, 1-(4-(bis(4H-benzo[d][1,3]dioxin-6-yl)methyl)piperazine-1-carbonyl)-1H-benzo[d][1,2,3]triazole-5-carbonitrile]
IC50 (human recombinant MAGL; [1]): 0.01 to 0.1 µM
IC50 (human recombinant FAAH): > 20 µM

O=C(N1CCN(C(c2ccc3c(c2)COCO3)c2ccc3c(c2)COCO3)CC1)n1nc2ccccn2c1=O [Example 50, 2-(4-(bis(4H-benzo[d][1,3]dioxin-6-yl)methyl)piperazine-1-carbonyl)-[1,2,4]triazolo[4,3-a]pyridin-3(2H)-one]
IC50 (human recombinant MAGL; [1]): > 0.1 µM
IC50 (human recombinant FAAH): > 50 µM

N#Cc1ccc2nnn(C(=O)N3CCCN(C(c4ccc5c(c4)COCO5)c4ccc5c(c4)COCO5)CC3)c2c1 [Example 51, 1-(4-(bis(4H-benzo[d][1,3]dioxin-6-yl)methyl)-1,4-diazepane-1-carbonyl)-1H-benzo[d][1,2,3]triazole-6-carbonitrile]
IC50 (human recombinant MAGL; [1]): 0.01 to 0.1 µM
IC50 (human recombinant FAAH): > 10 µM

O=C(C1CCN(C(c2ccc3c(c2)COCO3)c2ccc3c(c2)COCO3)CC1)n1nnc2ccccc21 [Example 52, (1H-benzo[d][1,2,3]triazol-1-yl)(1-(bis(4H-benzo[d][1,3]dioxin-6-yl)methyl)piperidin-4-yl)methanone]
IC50 (human recombinant MAGL; [1]): > 0.1 µM
IC50 (human recombinant FAAH): > 50 µM

O=C(OC(C(F)(F)F)C(F)(F)F)C1CCN(C(c2ccc3c(c2)COCO3)c2ccc3c(c2)COCO3)CC1 [Example 53, 1,1,1,3,3,3-hexafluoropropan-2-yl 1-(bis(4H-benzo[d][1,3]dioxin-6-yl)methyl)piperidine-4-carboxylate]
IC50 (human recombinant MAGL; [1]): > 0.1 µM
IC50 (human recombinant FAAH): > 50 µM

O=C(Oc1c(F)c(F)c(F)c(F)c1F)C1CCN(C(c2ccc3c(c2)COCO3)c2ccc3c(c2)COCO3)CC1 [Example 54, pentafluorophenyl 1-(bis(4H-benzo[d][1,3]dioxin-6-yl)methyl)piperidine-4-carboxylate]
IC50 (human recombinant MAGL; [1]): > 0.1 µM
IC50 (human recombinant FAAH): > 50 µM
